Measurements as given in patent publication EP3623370A1, “NOVEL TRF1 MODULATORS AND ANALOGUES THEREOF” (Fundación del Sector Público Estatal Centro Nacional de …, priority 2018, dated 2020).

These compounds were tested against T1, TRF1 (Mus musculus, UniProt P70371) (assay: Measurement of TRF1 levels at telomere by immunofluorescence). Conditions: CHA9.3 cells (primary murine lung cancer cell line), compound at 10 µM, 24 hours, duplicates.
T1 construct: endogenous in cells; host or cells: CHA9.3 primary murine lung cancer cell line
T1 sequence (P70371 1-421): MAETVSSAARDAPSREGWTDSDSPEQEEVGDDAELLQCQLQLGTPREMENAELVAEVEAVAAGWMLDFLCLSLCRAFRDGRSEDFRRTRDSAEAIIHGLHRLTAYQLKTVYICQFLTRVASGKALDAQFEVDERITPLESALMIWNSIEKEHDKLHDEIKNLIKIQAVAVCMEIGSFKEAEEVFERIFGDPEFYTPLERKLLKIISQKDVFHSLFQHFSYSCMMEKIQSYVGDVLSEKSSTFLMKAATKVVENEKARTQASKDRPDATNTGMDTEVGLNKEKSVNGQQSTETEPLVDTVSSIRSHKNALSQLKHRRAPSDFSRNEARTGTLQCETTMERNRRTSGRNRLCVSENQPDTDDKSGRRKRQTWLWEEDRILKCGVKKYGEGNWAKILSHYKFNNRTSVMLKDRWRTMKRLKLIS
Assay type: cell-based
Experimental: Assay was performed in CHA9.3, a primary murine cell line derived from a lung cancer. (Garcia-Beccaria et al., 2015). Cells were grown in DMEM (Gibco) supplemented with 10% FBS (fetal bovine serum), 1% penicillin/estreptomicen (Someglas 100U/ml) and 0.5% Amphotericin B (Gibco). Cells were incubated at 37 °C with 5% CO2. Cells were trypsinized with Trypsin-EDTA (Sigma) and washed with PBS (BioWhittaker) before counting and plating.
Cells were seeded in 10000 cells per 150 µl per well into black 96-well plates (Falcon) and incubated for 16 h at 37°C, 5% CO2. On day two, duplicates of each compound at 10 µM in DMSO were tested. The compounds were added to duplicate wells in 96-well cell plates using a FX BECKMAN robot (BeckmanCoulter) and were incubated at 37°C under CO2 atmosphere. After 24 hours, relative levels of TRF1 at telomeres were quantified by immunofluorescence. A rat monoclonal antibody against mouse TRF1 developed by the Monoclonal antibody unit at CNIO was used to detect endogenous TRF1.
First cells were fixed with 4 % formaldehyde (Sigma) in PBS (Alaos) during 13 minutes at room temperature (RT). After removal of the medium, cells were washed twice with PBS 10 minutes. Cells were permeabilized with a solution 0.2%Triton X-100 (Sigma) in PBS during 10 minutes at RT. After two more washes with PBS, cells were incubated with a solution 0.1%NaCitrate (Fluka) /0.1 %Triton X100 during 5 minutes at RT. After, two more washes with PBS cells were blocked with a solution 3% BSA (Sigma) in PBS-T, PBS with 0.05% Tween20 (Sigma), during 3 o 4 hours. Then, cells were incubated o/n at 4 °C with a dilution 1:750 of anti TRF1 antibody. After two washes of 10 minutes with PBS-T, cells were incubated with secondary antibody anti-rat 555 (Alexa Fluor) (1 :500) during 1 hour at RT: Then, 3 washes with PBS-T (0.05%) of 10 minutes and a last wash with PBS1X were performed. Nuclear staining was performed with Hoechst (Invitrogen) at de […] in PBS1X during10 minutes.
For quantification of TRF1 foci intensity, pictures of fixed cells were automatically acquired from each well by the Opera High Content Screening (HCS) system (Perkin Elmer). Forty images of random fields per well, with a 40xmagnification lens, were taken under non-saturating conditions. At least 1 × 10^3 cells were analyzed for each well. Briefly, images were segmented using the DAPI staining to generate masks matching cell nuclei from which-TRF1 foci were analyzed. Automatic analysis was performed with Acapela v2.0 software. Quantification of the inhibition of TRF1 levels at telomeres was performed with Pipeline platform.

Row | SMILES | inhibition at 10 µM [%]
1 | NC(Cc1ccccc1)c1csc(Nc2ncccn2)n1 (racemic) [Compound 1] | 27.3
2 | NC(Cc1ccccc1Br)c1csc(Nc2ncccn2)n1 (racemic) [Compound 2] | 29.8
3 | NC(Cc1cccc(Br)c1)c1csc(Nc2ncccn2)n1 (racemic) [Compound 5] | 29.8
4 | NC(Cc1ccc(Br)cc1)c1csc(Nc2ncccn2)n1 (racemic) [Compound 8] | 32.4
5 | NC(Cc1cccc(Cl)c1)c1csc(Nc2ncccn2)n1 (racemic) [Compound 12] | 27.9
6 | NC(Cc1ccc([N+](=O)[O-])cc1)c1csc(Nc2ncccn2)n1 (racemic) [Compound 14] | 0
7 | C#CCOc1cccc(CC(N)c2csc(Nc3ncccn3)n2)c1 (racemic) [Compound 17] | 31.6
8 | C#CCOc1ccc(CC(N)c2csc(Nc3ncccn3)n2)cc1 (racemic) [Compound 20] | 19.4
9 | C#CCCCCOc1ccc(CC(N)c2csc(Nc3ncccn3)n2)cc1 (racemic) [Compound 26] | 0
10 | C#Cc1cccc(CC(N)c2csc(Nc3ncccn3)n2)c1 (racemic) [Compound 58] | 27.1
11 | C#Cc1cnc(Nc2nc(C(N)Cc3ccccc3)cs2)nc1 (racemic) [Compound 62] | 11.4
12 | C#Cc1ccc(CC(N)c2csc(Nc3ncccn3)n2)cc1 (racemic) [Compound 66] | 18.1
13 | C#CCOc1cccc(-c2sc(Nc3ncccn3)nc2C(N)Cc2ccccc2)c1 (racemic) [Compound 87] | 17.5
14 | NC(Cc1ccccc1Br)c1csc(Nc2ncccn2)n1 (single isomer, unassigned) [Compound 3] | 25.4
15 | NC(Cc1cccc(Br)c1)c1csc(Nc2ncccn2)n1 (single isomer, unassigned) [Compound 6] | 28.3
16 | C#CCOc1cccc(CC(N)c2csc(Nc3ncccn3)n2)c1 (single isomer, unassigned) [Compound 18] | 33.8
17 | C#CCOc1cccc(C[C@H](N)c2csc(Nc3ncccn3)n2)c1 [Compound 19] | 27.5
18 | Cc1ccnc(Nc2nc([C@@H](N)Cc3ccccc3)cs2)n1 [Compound 33] | 30
19 | N[C@@H](Cc1ccccc1)c1csc(Nc2ncc(Br)cn2)n1 [Compound 34] | 21
20 | N[C@@H](Cc1ccccc1)c1csc(Nc2ccccn2)n1 [Compound 35] | 20.5

Row | SMILES | inhibition at 10 µM [%]
21 | Cc1cnc(Nc2nc([C@@H](N)Cc3ccccc3)cs2)nc1 [Compound 36] | 18.4
22 | COc1cc(C)nc(Nc2nc([C@@H](N)Cc3ccccc3)cs2)n1 [Compound 37] | 9.77
23 | Nc1ccc(CC(N)c2csc(Nc3ncccn3)n2)cc1 (centres unmarked) [Compound 52] | 10.5
24 | C#Cc1cccc(C[C@@H](N)c2csc(Nc3ncccn3)n2)c1 [Compound 60] | 24.8
25 | C#Cc1cccc(C[C@H](N)c2csc(Nc3ncccn3)n2)c1 [Compound 61] | 30.5
26 | C#Cc1cnc(Nc2nc([C@H](N)Cc3ccccc3)cs2)nc1 [Compound 63] | 11.7
27 | C#Cc1cnc(Nc2nc([C@@H](N)Cc3ccccc3)cs2)nc1 [Compound 64] | 6.41
28 | C#Cc1ccc(C[C@@H](N)c2csc(Nc3ncccn3)n2)cc1 [Compound 68] | 31.2
29 | C#Cc1ccc(C[C@H](N)c2csc(Nc3ncccn3)n2)cc1 [Compound 69] | 7.7
30 | C#CCCC(=O)Nc1cnc(Nc2nc(C(N)Cc3ccc(F)cc3)cs2)nc1 (centres unmarked) [Compound 74] | 15.5
31 | Nc1cccc(-c2sc(Nc3ncccn3)nc2C(N)Cc2ccccc2Br)c1 (centres unmarked) [Compound 78] | 27.8
32 | C#Cc1cccc(-c2sc(Nc3ncccn3)nc2C(N)Cc2ccccc2)c1 (centres unmarked) [Compound 81] | 19.7
33 | CC(=O)Nc1cccc(-c2sc(Nc3ncccn3)nc2C(N)Cc2ccccc2)c1 (centres unmarked) [Compound 83] | 17.2
34 | COCCOc1cccc(-c2sc(Nc3ncccn3)nc2[C@@H](N)Cc2ccccc2)c1 [Compound 84] | 16.3
35 | N[C@@H](Cc1ccccc1)c1nc(Nc2ncccn2)sc1Br [Compound 88] | 29.9
36 | N[C@@H](Cc1ccccc1)c1nc(Nc2ncccn2)sc1-c1cccc(O)c1 [Compound 89] | 23
37 | NC(Cc1cccc(O)c1)c1csc(Nc2ncccn2)n1 (centres unmarked) [Compound 105] | 29.5
38 | NC(Cc1ccc(O)cc1)c1csc(Nc2ncccn2)n1 (centres unmarked) [Compound 120] | 20
39 | C#CCOc1cccc(-c2sc(Nc3ncccn3)nc2[C@@H](N)Cc2ccccc2)c1 [Compound 122] | 5.33
40 | C#CCOc1cccc(-c2sc(Nc3ncccn3)nc2[C@H](N)Cc2ccccc2)c1 [Compound 123] | 10.9

Same assay, conditions: CHA9.3 cells (primary murine lung cancer cell line), compound at 10 µM, 24 hours, duplicates; 10 µM

Row | SMILES | % inhibition of TRF1 levels [%]
41 | NC(Cc1ccccc1Br)c1csc(Nc2ncccn2)n1 (single isomer, unassigned) [Compound 4] | 24.91
42 | NC(Cc1cccc(Br)c1)c1csc(Nc2ncccn2)n1 (single isomer, unassigned) [Compound 7] | 28.55

Same assay, conditions: qualitative SAR statement in the description

Row | SMILES | TRF1 inhibition activity (active / inactive, in words)
43 | C#CCOc1cccc(CC(N)c2csc(Nc3ncccn3)n2)c1 (racemic) [Compound 17] | active
44 | C#CCOc1ccc(CC(N)c2csc(Nc3ncccn3)n2)cc1 (racemic) [Compound 20] | active
45 | C#CCOc1cccc(CC(N)c2csc(Nc3ncccn3)n2)c1 (single isomer, unassigned) [Compound 18] | active
46 | C#CCOc1cccc(C[C@H](N)c2csc(Nc3ncccn3)n2)c1 [Compound 19] | active
47 | COc1cc(C)nc(Nc2nc([C@@H](N)Cc3ccccc3)cs2)n1 [Compound 37] | active
